Assay results: the supplement of paper PMC4862054
“And” between values parts separate entries of the source, which are not always exact repeats. Equal values may be shown once.

Assays:
BT-474 [1] = details: 72 h
Procedure, shortened: (§1)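 For viability and cell death testing, 384-well plates carried compound at 5 concentrations in 10-fold steps over a compound-specific 10,000-fold range, and breast cancer cell lines were seeded in 20 µl suspension. After 72 h incubation, cell death was read by CellTox Green fluorescence (485/520 nm) before viability was read by CellTiter-Glo luminescence. EC50 was fitted from the dose-response curves and censored at the top concentration. Normalisation on each plate was to 0.1 % DMSO and a positive kill control.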

HDQ-P1 [2] = details: 72 h
Procedure, shortened: as §1

MDA-MB-468 [3] = details: 72 h
Procedure, shortened: as §1

MDA-MB-436 = assay: normalised viability (% of control), CellTiter-Blue; higher = more viable cells (about 100 = DMSO control); details: incubation time: 72 h
Procedure, shortened: (§2)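 The reported figure is normalised viability at a single listed concentration of the series. Breast cancer cell lines (20 µl suspension) went onto 384-well plates holding compound in 5 µl medium for 72 h. CellTiter-Blue (2.5 µl, 2 h, 37 °C) was read by fluorescence at 560/590 nm, and each plate was scaled to vehicle at 100 and a positive kill control at 0.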

CAL-51 [4] = assay: as above; details: incubation time: 72 h
Procedure, shortened: as §2

MDA-MB-453 [5] = assay: as above; details: incubation time: 72 h
Procedure, shortened: as §2

DU-4475 = assay: as above; details: incubation time: 72 h
Procedure, shortened: as §2

MDA-MB-231 = assay: as above; details: incubation time: 72 h
Procedure, shortened: as §2

BT-474 [6] = assay: as above; details: incubation time: 72 h
Procedure, shortened: as §2

Hs578T = assay: as above; details: incubation time: 72 h
Procedure, shortened: as §2

HCC1143 = assay: as above; details: incubation time: 72 h
Procedure, shortened: as §2

HCC1599 = assay: as above; details: incubation time: 72 h
Procedure, shortened: as §2

HDQ-P1 [7] = assay: as above; details: incubation time: 72 h
Procedure, shortened: as §2

MFM-223 = assay: as above; details: incubation time: 72 h
Procedure, shortened: as §2

SK-BR-3 [8] = assay: as above; details: incubation time: 72 h
Procedure, shortened: as §2

CAL-148 = assay: as above; details: incubation time: 72 h
Procedure, shortened: as §2

MDA-MB-468 [9] = assay: as above; details: incubation time: 72 h
Procedure, shortened: as §2

HCC1937 = assay: as above; details: incubation time: 72 h
Procedure, shortened: as §2

CAL-120 [10] = assay: as above; details: incubation time: 72 h
Procedure, shortened: as §2

BT-549 [11] = assay: as above; details: incubation time: 72 h
Procedure, shortened: as §2

CAL-85-1 = assay: as above; details: incubation time: 72 h
Procedure, shortened: as §2

CAL-51 [12] = assay: as above; details: incubation time: 72 h; remark: listed apart in the source
Procedure, shortened: as §2

MDA-MB-453 [13] = assay: as above; details: incubation time: 72 h; remark: listed apart in the source
Procedure, shortened: as §2

SK-BR-3 [14] = assay: as above; details: incubation time: 72 h; remark: listed apart in the source
Procedure, shortened: as §2

MDA-MB-468 [15] = assay: as above; details: incubation time: 72 h; remark: listed apart in the source
Procedure, shortened: as §2

CAL-120 [16] = assay: as above; details: incubation time: 72 h; remark: listed apart in the source
Procedure, shortened: as §2

BT-549 [17] = assay: as above; details: incubation time: 72 h; remark: listed apart in the source
Procedure, shortened: as §2

CC(=O)O[C@@]12CO[C@@H]1C[C@H](O)[C@@]1(C)C(=O)[C@H](O)C3=C(C)[C@@H](OC(=O)[C@H](O)[C@@H](NC(=O)OC(C)(C)C)c4ccccc4)C[C@@](O)([C@@H](OC(=O)c4ccccc4)[C@H]21)C3(C)C [Docetaxel]
Details | EC50, CellTiter-Glo [nM]
BT-474 [1] | 7.47
HDQ-P1 [2] | 2.08
MDA-MB-468 [3] | 0.68

Details | normalised viability
BT-474 [6], 10 nM | 49.9% and 46.2%
BT-549 [11], 10 nM | 28% and 25.4%
BT-549 [17], 1 nM | 64.5% and 58.7%
BT-549 [17], 100 nM | 24.3% and 19%
BT-549 [17], 1000 nM | 24.4% and 20.3%
CAL-51 [4], 1 nM | 101% and 90.4%
CAL-51 [12], 0.3 nM | 112% and 93.8%
CAL-51 [12], 3 nM | 67.8% and 60.9%
CAL-51 [12], 10 nM | 45.5% and 33.4%
CAL-85-1, 1 nM | 88.3% and 86.5%
CAL-120 [10], 10 nM | 32.1% and 30.1%
CAL-120 [16], 1 nM | 84.9% and 81.7%
CAL-120 [16], 100 nM | 25% and 23.5%
CAL-120 [16], 1000 nM | 25.8% and 23.3%
CAL-148, 1 nM | 99.2% and 81.9%
DU-4475, 1 nM | 86% and 95.2%
HCC1143, 10 nM | 51.7% and 35.2%
HCC1599, 10 nM | 110% and 108%
HCC1937, 10 nM | 32.2% and 27.2%
HDQ-P1 [7], 1 nM | 78.7% and 71.2%
Hs578T, 10 nM | 13.1% and 18.8%
MDA-MB-231, 10 nM | 34.8% and 32.6%
MDA-MB-436, 10 nM | 51.1% and 52%
MDA-MB-453 [5], 1 nM | 85.9% and 66.5%
MDA-MB-453 [13], 0.3 nM | 121% and 107%
MDA-MB-453 [13], 3 nM | 48.1% and 57.8%
MDA-MB-453 [13], 10 nM | 39.6% and 31.9%
MDA-MB-468 [9], 10 nM | 50% and 41.6%
MDA-MB-468 [15], 1 nM | 69.7% and 68.9%
MDA-MB-468 [15], 100 nM | 53% and 46.7%
MDA-MB-468 [15], 1000 nM | 46.3% and 52.4%
MFM-223, 10 nM | 59.6% and 53.8%
SK-BR-3 [8], 10 nM | 6.91% and 8.46%
SK-BR-3 [14], 1 nM | 85.7% and 86.8%
SK-BR-3 [14], 100 nM | 19% and 14.4%
SK-BR-3 [14], 1000 nM | 18.3% and 14.1%

CC(C)(C)c1cnc(CSc2cnc(NC(=O)C3CCNCC3)s2)o1 [SNS-032]
Details | EC50, CellTiter-Glo [nM]
BT-474 [1] | 112
HDQ-P1 [2] | 50
MDA-MB-468 [3] | 36

Details | normalised viability [%]
BT-474 [6], 100 nM | 85.5
BT-549 [11], 100 nM | 91.7
BT-549 [17], 10 nM | 94.8
BT-549 [17], 1000 nM | 11.6
BT-549 [17], 10000 nM | 9.46
CAL-51 [4], 10 nM | 117
CAL-51 [12], 3 nM | 113
CAL-51 [12], 30 nM | 107
CAL-51 [12], 100 nM | 107
CAL-85-1, 10 nM | 96.2
CAL-120 [10], 100 nM | 69
CAL-120 [16], 10 nM | 84.1
CAL-120 [16], 1000 nM | 12.9
CAL-120 [16], 10000 nM | 11.8
CAL-148, 10 nM | 89.1
DU-4475, 10 nM | 101
HCC1143, 100 nM | 76.5
HCC1599, 100 nM | 78.6
HCC1937, 100 nM | 53.2
HDQ-P1 [7], 10 nM | 132
Hs578T, 100 nM | 52.8
MDA-MB-231, 100 nM | 69.5
MDA-MB-436, 100 nM | 104
MDA-MB-453 [5], 10 nM | 99.8
MDA-MB-453 [13], 3 nM | 118
MDA-MB-453 [13], 30 nM | 92.7
MDA-MB-453 [13], 100 nM | 70.8
MDA-MB-468 [9], 100 nM | 96.9
MDA-MB-468 [15], 10 nM | 114
MDA-MB-468 [15], 1000 nM | 11.3
MDA-MB-468 [15], 10000 nM | 5.84
MFM-223, 100 nM | 82.7
SK-BR-3 [8], 100 nM | 62.1
SK-BR-3 [14], 10 nM | 98.4
SK-BR-3 [14], 1000 nM | 5.34
SK-BR-3 [14], 10000 nM | 4.75

Cn1cnc2c(F)c(Nc3ccc(Br)cc3Cl)c(C(=O)NOCCO)cc21 [Selumetinib]
Details | EC50, CellTiter-Glo [nM]
BT-474 [1] | 361
HDQ-P1 [2] | 44.8
MDA-MB-468 [3] | 5030

Details | normalised viability [%]
BT-474 [6], 100 nM | 94.5
BT-549 [11], 100 nM | 110
BT-549 [17], 10 nM | 109
BT-549 [17], 1000 nM | 101
BT-549 [17], 10000 nM | 95.3
CAL-51 [4], 10 nM | 113
CAL-51 [12], 3 nM | 116
CAL-51 [12], 30 nM | 102
CAL-51 [12], 100 nM | 96.3
CAL-85-1, 10 nM | 98.6
CAL-120 [10], 100 nM | 82.8
CAL-120 [16], 10 nM | 78.8
CAL-120 [16], 1000 nM | 78.6
CAL-120 [16], 10000 nM | 63.3
CAL-148, 10 nM | 91.6
DU-4475, 10 nM | 93.8
HCC1143, 100 nM | 63.9
HCC1599, 100 nM | 96.6
HCC1937, 100 nM | 97.9
HDQ-P1 [7], 10 nM | 116
Hs578T, 100 nM | 68.4
MDA-MB-231, 100 nM | 61.5
MDA-MB-436, 100 nM | 123
MDA-MB-453 [5], 10 nM | 108
MDA-MB-453 [13], 3 nM | 122
MDA-MB-453 [13], 30 nM | 105
MDA-MB-453 [13], 100 nM | 110
MDA-MB-468 [9], 100 nM | 92.5
MDA-MB-468 [15], 10 nM | 106
MDA-MB-468 [15], 1000 nM | 95
MDA-MB-468 [15], 10000 nM | 69.5
MFM-223, 100 nM | 87.6
SK-BR-3 [8], 100 nM | 65.7
SK-BR-3 [14], 10 nM | 98.7
SK-BR-3 [14], 1000 nM | 114
SK-BR-3 [14], 10000 nM | 93.6

Nc1nc2[nH]cnc2c(=S)[nH]1 [Thioguanine]
Details | EC50, CellTiter-Glo [nM]
BT-474 [1] | 197
HDQ-P1 [2] | 2970
MDA-MB-468 [3] | 9670

Details | normalised viability [%]
BT-474 [6], 100 nM | 109
BT-549 [11], 100 nM | 94.6
BT-549 [17], 10 nM | 94
BT-549 [17], 1000 nM | 106
BT-549 [17], 10000 nM | 49
CAL-51 [4], 10 nM | 108
CAL-51 [12], 3 nM | 114
CAL-51 [12], 30 nM | 109
CAL-51 [12], 100 nM | 109
CAL-85-1, 10 nM | 102
CAL-120 [10], 100 nM | 96.8
CAL-120 [16], 10 nM | 94.1
CAL-120 [16], 1000 nM | 67.2
CAL-120 [16], 10000 nM | 34.9
CAL-148, 10 nM | 109
DU-4475, 10 nM | 105
HCC1143, 100 nM | 82.7
HCC1599, 100 nM | 103
HCC1937, 100 nM | 98.5
HDQ-P1 [7], 10 nM | 103
Hs578T, 100 nM | 89.9
MDA-MB-231, 100 nM | 89.3
MDA-MB-436, 100 nM | 103
MDA-MB-453 [5], 10 nM | 109
MDA-MB-453 [13], 3 nM | 132
MDA-MB-453 [13], 30 nM | 102
MDA-MB-453 [13], 100 nM | 98.6
MDA-MB-468 [9], 100 nM | 107
MDA-MB-468 [15], 10 nM | 104
MDA-MB-468 [15], 1000 nM | 62.1
MDA-MB-468 [15], 10000 nM | 44.4
MFM-223, 100 nM | 95.2
SK-BR-3 [8], 100 nM | 87.5
SK-BR-3 [14], 10 nM | 99.7
SK-BR-3 [14], 1000 nM | 103
SK-BR-3 [14], 10000 nM | 49.6
